The values that follow come from patent US5708005A, “Quinolines, their production and use” (priority 1995, dated 1998).

Each structure is given as a SMILES string.

One data set concerns the target melatonin receptor. Put plainly: Action of inhibiting 2-[^125 I]iodomelatonin binding (forebrain membrane sample). The arrangement: species or system 7-days-old chicken (white leghorn). The following applies: 80 pM 2-[^125 I]iodomelatonin, chicken forebrain membranes, 90 minutes at 25° C., pH 7.7; non-specific binding with 10 μM melatonin; log-probit analysis; read-out: IC50 (50% inhibiting concentration), inhibition of 2-[^125 I]iodomelatonin binding. On the procedure: Action of inhibiting 2-[^125 I]iodomelatonin binding
The forebrains of 7-days-old chicken (white leghorn) were homogenized with ice-cold assay buffer (50 mM Tris-HCl, pH 7.7 at 25° C.) and centrifuged at 44,000×g for 10 minutes at 4° C. The pellet was washed once with the same buffer. For the assay, the frozen tissue pellet was thawed and homogenized with the assay buffer to make a protein concentration of 0.3-0.4 mg/ml. In this way, the membrane sample was prepared. The membrane sample was incubated with a test compound and a ligand (80 pM 2-[^125 I]iodomelatonin, about 100,000 dpm) in a total volume of 0.5 ml for 90 minutes at 25° C. The reaction was terminated by adding 3 ml of ice-cold assay buffer immediately followed by vacuum filtration on Whatman GF/B which was further washed twice with 3 ml of ice-cold assay buffer. The radioactivity on the filter was determined by means of γ-counter. […] The 50% inhibiting concentration (IC50) was determined by the log-probit analysis.

The next data set relates to central nervous system. The following applies: administered peripherally; Bioorganic & Medicinal Chemistry Letters, Vol. 4, p. 1485 (1994); cited from earlier work.
In another data set the test system is metabolic enzymes. The following applies: Rinsho Kensa, Vol. 38, No. 11 (1994); cited from earlier work.

Take `COc1ccc2nc(Cl)cc(CCNC(C)=O)c2c1` [Working Example 1, N-[2-(2-chloro-6-methoxyquinolin-4-yl)ethyl]acetamide]: the IC50 on melatonin receptor was determined as 8.4 nM.
With `COc1ccc2[nH]cc(CCNC(C)=O)c2c1` [melatonin, N-acetyl-5-methoxytryptamine], the “activity on central nervous system” value in the data set on central nervous system is “inactive”. Further, the “metabolism by metabolic enzymes in a living body” value with metabolic enzymes is listed as “readily metabolized”.
Turning to `COc1ccc2nc(Cl)cc(CCNC(=O)C(F)(F)F)c2c1` [compound 3], the IC50 at melatonin receptor was found to be 8.9 nM.
